According to patent US11793824B2, “Administration of nicotinamide mononucleotide in the treatment of disease” (Washington University, priority 2013, dated 2023):

System: neurospheres (NSPCs)
Assay: Microarray with parametric analysis of gene set enrichment (PAGE) of FK866-treated neurospheres
Format: cell-based, mouse
Protocol: For individual genes, raw microarray data were subjected to Z score transformation, and Z ratios were calculated as described previously (Cheadle et al, 2003). Subsequent analysis and Parametric Analysis of Gene Set Enrichment (PAGE) analysis was performed as previously described (Yoshino et al, 2011). The microarray data used in this study has been deposited into the NCBI GEO database (GEO accession number GSE49784).
The inventors investigated how inhibition of Nampt affects neurosphere proliferation. […] To distinguish whether this decrease in cell number was due to an inhibition of proliferation or enhancement of death, the inventors analyzed the protein levels of markers of proliferation, apoptosis, and autophagy. […] Parametric analysis of gene enrichment (PAGE) was conducted based on microarray analyses. See the Methods section. […] Data are presented as mean±s.e.m. *P<0.05. **P<0.01. ***P<0.001.

[1] = FK866 10 nM 48 hours, downregulated pathway
[2] = FK866 10 nM 48 hours, upregulated pathway

O=C(/C=C/c1cccnc1)NCCCCC1CCN(C(=O)c2ccccc2)CC1 [FK866]
Z Ratio: BASE_EXCISION_REPAIR [1]: −4.3 | Z Ratio: CELL_CYCLE_CHECKPOINT_GO_0000075 [1]: −3.92 | Z Ratio: CELL_CYCLE_GO_0007049 [1]: −4.63 | Z Ratio: CELL_CYCLE_PHASE [1]: −4.23 | Z Ratio: CELL_CYCLE_PROCESS [1]: −4.75 | Z Ratio: CHROMOSOMAL_PART [1]: −3.48 | Z Ratio: CHROMOSOME [1]: −4.75 | Z Ratio: CONDENSED_CHROMOSOME [1]: −3.57 | Z Ratio: CONDENSED_NUCLEAR_CHROMOSOME [1]: −3.36 | Z Ratio: DNA_DEPENDENT_DNA_REPLICATION [1]: −6.07 | Z Ratio: DNA_INTEGRITY_CHECKPOINT [1]: −3.2 | Z Ratio: DNA_METABOLIC_PROCESS [1]: −6.49 | Z Ratio: DNA_RECOMBINATION [1]: −3.69 | Z Ratio: DNA_REPAIR [1]: −5.98 | Z Ratio: DNA_REPLICATION [1]: −6.2 | Z Ratio: DOUBLE_STRANDED_DNA_BINDING [1]: −3.95 | Z Ratio: HYDROLASE_ACTIVITY_HYDROLYZING_N_GLYCOSYL_COMPOUNDS [1]: −3.63 | Z Ratio: INTERPHASE [1]: −3.28 | Z Ratio: INTERPHASE_OF_MITOTIC_CELL_CYCLE [1]: −3.07 | Z Ratio: INTRACELLULAR_NON_MEMBRANE_BOUND_ORGANELLE [1]: −3.46 | Z Ratio: INTRACELLULAR_ORGANELLE_PART [1]: −5.85 | Z Ratio: MACROMOLECULAR_COMPLEX [1]: −4.14 | Z Ratio: MEMBRANE_ENCLOSED_LUMEN [1]: −5.04 | Z Ratio: METHYLTRANSFERASE_ACTIVITY [1]: −3.3 | Z Ratio: MITOTIC_CELL_CYCLE [1]: −3.48 | Z Ratio: M_PHASE [1]: −3.67 | Z Ratio: NON_MEMBRANE_BOUND_ORGANELLE [1]: −3.46 | Z Ratio: NUCLEAR_CHROMOSOME [1]: −4.11 | Z Ratio: NUCLEAR_LUMEN [1]: −4.74 | Z Ratio: NUCLEAR_PART [1]: −7.07 | Z Ratio: NUCLEOBASE_NUCLEOSIDE_AND_NUCLEOTIDE_METABOLIC_PROCESS [1]: −3.35 | Z Ratio: NUCLEOBASE_NUCLEOSIDE_NUCLEOTIDE_AND_NUCLEIC_ACID [1]: −5.34 | Z Ratio: NUCLEOLUS [1]: −3.47 | Z Ratio: NUCLEOPLASM [1]: −3.62 | Z Ratio: NUCLEOTIDE_METABOLIC_PROCESS [1]: −3.21 | Z Ratio: NUCLEUS [1]: −5.95 | Z Ratio: ORGANELLE_LUMEN [1]: −5.04 | Z Ratio: ORGANELLE_PART [1]: −5.72 | Z Ratio: PROTEIN_COMPLEX [1]: −3.08 | Z Ratio: REPLICATION_FORK [1]: −3.6 | Z Ratio: RESPONSE_TO_DNA_DAMAGE_STIMULUS [1]: −5.8 | Z Ratio: RESPONSE_TO_ENDOGENOUS_STIMULUS [1]: −4.18 | Z Ratio: RIBONUCLEOPROTEIN_COMPLEX [1]: −3.49 | Z Ratio: RNA_BINDING [1]: −3.44 | Z Ratio: RNA_PROCESSING [1]: −4.32 | Z Ratio: SINGLE_STRANDED_DNA_BINDING [1]: −3.17 | Z Ratio: STRUCTURE_SPECIFIC_DNA_BINDING [1]: −4.08 | Z Ratio: TRANSFERASE_ACTIVITY_TRANSFERRING_ONE_CARBON_GROUPS [1]: −3.37 | Z Ratio: TRNA_METABOLIC_PROCESS [1]: −3.76 | Z Ratio: TRNA_PROCESSING [1]: −3.51 | Z Ratio: ACTIN_FILAMENT_BASED_PROCESS [2]: 3.18 | Z Ratio: ANATOMICAL_STRUCTURE_DEVELOPMENT [2]: 4.47 | Z Ratio: ANATOMICAL_STRUCTURE_MORPHOGENESIS [2]: 3.39 | Z Ratio: AXON_GUIDANCE [2]: 3.34 | Z Ratio: CELL_DEVELOPMENT [2]: 3.44 | Z Ratio: CELL_JUNCTION [2]: 3.29 | Z Ratio: CELL_MATRIX_ADHESION [2]: 3.18 | Z Ratio: CELL_MATRIX_JUNCTION [2]: 3.20 | Z Ratio: CELL_SUBSTRATE_ADHERENS_JUNCTION [2]: 3.17 | Z Ratio: CELL_SURFACE_RECEPTOR_LINKED_SIGNAL_TRANS-DUCTION_GO_000166 [2]: 3.17 | Z Ratio: CYTOSKELETAL_PROTEIN_BINDING [2]: 3.36 | Z Ratio: EARLY_ENDOSOME [2]: 3.37 | Z Ratio: ENZYME_LINKED_RECEPTOR_PROTEIN_SIGNALING_PATHWAY [2]: 4.05 | Z Ratio: EXTRACELLULAR_REGION [2]: 4.10 | Z Ratio: EXTRACELLULAR_REGION_PART [2]: 3.82 | Z Ratio: EXTRACELLULAR_SPACE [2]: 3.66 | Z Ratio: FOCAL_ADHESION [2]: 3.44 | Z Ratio: FOCAL_ADHESION_FORMATION [2]: 3.83 | Z Ratio: GENERATION_OF_NEURONS [2]: 3.34 | Z Ratio: Growth [2]: 3.85 | Z Ratio: IDENTICAL_PROTEIN_BINDING [2]: 3.19 | Z Ratio: INTERMEDIATE_FILAMENT [2]: 3.61 | Z Ratio: INTERMEDIATE_FILAMENT_CYTOSKELETON [2]: 3.61 | Z Ratio: LIGAND_DEPENDENT_NUCLEAR_RECEPTOR_ACTIVITY [2]: 3.26 | Z Ratio: LIPID_HOMEOSTASIS [2]: 3.28 | Z Ratio: MEMBRANE [2]: 3.55 | Z Ratio: MESODERM_DEVELOPMENT [2]: 3.45 | Z Ratio: MULTICELLULAR_ORGANISMAL_DEVELOPMENT [2]: 4.64 | Z Ratio: NEGATIVE_REGULATION_OF_GROWTH [2]: 3.84 | Z Ratio: NERVOUS_SYSTEM_DEVELOPMENT [2]: 3.39 | Z Ratio: NEUROGENESIS [2]: 3.21 | Z Ratio: NEURON_PROJECTION [2]: 3.62 | Z Ratio: OLIGOSACCHARIDE_METABOLIC_PROCESS [2]: 3.82 | Z Ratio: ORGAN_DEVELOPMENT [2]: 4.28 | Z Ratio: PDZ_DOMAIN_BINDING [2]: 3.26 | Z Ratio: PHOSPHOINOSITIDE_BINDING [2]: 4.49 | Z Ratio: PLASMA_MEMBRANE [2]: 3.46 | Z Ratio: POSITIVE_REGULATION_OF_SECRETION [2]: 3.51 | Z Ratio: RECEPTOR_BINDING [2]: 4.25 | Z Ratio: REGULATION_OF_CELL_GROWTH [2]: 3.49 | Z Ratio: REGULATION_OF_GROWTH [2]: 3.48 | Z Ratio: REGULATION_OF_SIGNAL_TRANSDUCTION [2]: 3.77 | Z Ratio: SENSORY_PERCEPTION [2]: 3.57 | Z Ratio: SIALYLTRANSFERASE_ACTIVITY [2]: 1.61 | Z Ratio: SIGNAL_TRANSDUCTION [2]: 3.47 | Z Ratio: SYSTEM_DEVELOPMENT [2]: 4.69 | Z Ratio: SYSTEM_PROCESS [2]: 3.74 | Z Ratio: TASTE_RECEPTOR_ACTIVITY [2]: 3.36 | Z Ratio: TRANSMEMBRANE_RECEPTOR_PROTEIN_TYROSINE_KINASE_SIGNALING_PATH [2]: 3.18 | Z Ratio: VACUOLE [2]: 3.19 | number of the top 50 downregulated pathways related to the cell cycle (FK866-treated neurospheres): 13 | top 50 upregulated pathways involved in cell death (FK866-treated neurospheres): none
